Where two headings read alike, the source gives them in different places.
Key:
[1] = system: apomorphine straightening; assay: antagonism to apomorphine straightening (neuroleptic activity); format: in vivo, mice; settings: Mus musculus, ip, read-out: Apomorphine straightening ED 50
[2] = acute toxicity by intraperitoneal administration; settings: mouse, in vivo, ip; mice, i.p., estimated lethal dose (method of Miller); read-out: Acute toxicity LD 50
Text: Acute toxicity was studied on mice by intraperitoneal administration, and the estimated lethal doses in accordance with the method described by MILLER and THINTER Proc. Soc. Exper.

Structure (SMILES) | ED50 [1] [mg/kg] | LD50 [2] [mg/kg] | ED50 ([1]; mice, i.p.) [mg/kg]
COc1ccc(F)cc1C(=O)N[C@@H]1C[C@H]2CC[C@@H](C1)N2Cc1ccccc1 [Compound 49] | 0.08 | 120 | –
COc1nc(N)ncc1C(=O)N[C@@H]1C[C@H]2CC[C@@H](C1)N2Cc1ccc(Br)cc1 [Compound 37] | 0.16 | 170 | –
COc1cc(N)c(Cl)cc1C(=O)N[C@@H]1C[C@H]2CC[C@@H](C1)N2Cc1ccco1 [Compound 71] | 0.11 | 120 | –
COc1cc(NC(C)=O)c(Cl)cc1C(=O)N[C@@H]1C[C@H]2CC[C@@H](C1)N2Cc1ccccc1 [Compound 42] | 0.05 | 61 | –
COc1cc(N)c(Br)cc1C(=O)N[C@@H]1C[C@H]2CC[C@@H](C1)N2Cc1cccc(C)c1 [Compound 24] | 0.05 | 160 | –
COc1cc(N)c(Br)cc1C(=O)N[C@@H]1C[C@H]2CC[C@@H](C1)N2Cc1cccc(Br)c1 [Compound 27] | 0.034 | > 400 | –
CCc1ccc(CN2[C@@H]3CC[C@H]2C[C@H](NC(=O)c2cc(Br)c(N)cc2OC)C3)cc1 [Compound 30] | 0.3 | 230 | –
COc1cc(NC(=O)C(F)(F)F)c(Br)cc1C(=O)N[C@@H]1C[C@H]2CC[C@@H](C1)N2Cc1ccccc1 [Compound 41] | 0.03 | 225 | –
COc1cc(NC(=O)C(F)(F)F)c(Cl)cc1C(=O)N[C@@H]1C[C@H]2CC[C@@H](C1)N2Cc1ccccc1 [Compound 43] | 0.03 | 120 | –
COc1cc(OC)cc(C(=O)N[C@@H]2C[C@H]3CC[C@@H](C2)N3Cc2ccccc2)c1 [Compound 83] | 0.031 | 140 | –
COc1cc(N)c(Cl)cc1C(=O)N[C@@H]1C[C@H]2CC[C@@H](C1)N2Cc1ccsc1 [Compound 72] | 0.04 | 110 | –
COc1cc(N)c(Br)cc1C(=O)N[C@@H]1C[C@H]2CC[C@@H](C1)N2Cc1ccc(Cl)c(Cl)c1 [Compound 28] | 0.12 | > 400 | –
COc1ccc(CN2[C@@H]3CC[C@H]2C[C@H](NC(=O)c2cnc(N)nc2OC)C3)cc1 [Compound 9] | 0.01 | 240 | –
COc1cccc(C(=O)N[C@@H]2C[C@H]3CC[C@@H](C2)N3Cc2ccccc2)c1OC [Compound 64] | 0.008 | 83 | –
COc1cc(N)c(Br)cc1C(=O)N[C@@H]1C[C@H]2CC[C@@H](C1)N2Cc1cccs1 [Compound 29] | 0.012 | 180 | –
CCN1CCCC1CNC(=O)c1cc(S(N)(=O)=O)ccc1OC (stereo not drawn) [SULPIRIDE, reference compound] | – | – | 37
COc1cc(N)c(Br)cc1C(=O)N[C@@H]1C[C@H]2CC[C@@H](C1)N2Cc1ccc(Cl)cc1 [Compound 22] | 0.021 | 140 | –
COc1ccccc1C(=O)N[C@@H]1C[C@H]2CC[C@@H](C1)N2Cc1ccccc1 [Compound 62] | 0.04 | 60 | –
COc1cc(N)c(Br)cc1C(=O)N[C@@H]1C[C@H]2CC[C@@H](C1)N2Cc1ccc(Br)cc1 [Compound 20] | 0.034 | > 400 | –
COc1ccc([N+](=O)[O-])cc1C(=O)N[C@@H]1C[C@H]2CC[C@@H](C1)N2Cc1ccccc1 [Compound 48] | 0.21 | 310 | –
COc1cc(N)c(Br)cc1C(=O)N[C@@H]1C[C@H]2CC[C@@H](C1)N2CC1CCCCC1 [Compound 35] | 0.07 | 80 | –

Structure (SMILES) | ED50 [1] [mg/kg] | LD50 [2] [mg/kg] | ED50 ([1]; mice, i.p.) [mg/kg]
COc1cc(N)c(Cl)cc1C(=O)N[C@@H]1C[C@H]2CC[C@@H](C1)N2Cc1cccs1 [Compound 73] | 0.02 | 170 | –
COc1cc(OC)c(C(=O)N[C@@H]2C[C@H]3CC[C@@H](C2)N3Cc2ccccc2)cc1OC [Compound 60] | 0.027 | 75 | –
COc1cc(N)c(Br)cc1C(=O)N[C@@H]1C[C@H]2CC[C@@H](C1)N2Cc1ccccc1 [Compound 16] | 0.01 | 240 | –
COc1nc(N)ncc1C(=O)N[C@@H]1C[C@H]2CC[C@@H](C1)N2Cc1ccc(C)cc1 [Compound 10] | 0.035 | 325 | –
COc1nc(N)ncc1C(=O)N[C@@H]1C[C@H]2CC[C@@H](C1)N2Cc1ccc(Cl)cc1 [Compound 8, β-3-[5-(2-amino 4-methoxypyrimidinyl)carbonyl]amino N-parachlorobenzyl nor-tropane] | 0.035 | 220 | –
COc1ccc(C(=O)N[C@@H]2C[C@H]3CC[C@@H](C2)N3Cc2ccccc2)c(OC)c1OC [Compound 61] | 0.02 | 80 | –
COc1cc(N)c(Br)cc1C(=O)N[C@@H]1C[C@H]2CC[C@@H](C1)N2Cc1cccc(Cl)c1 [Compound 25] | 0.03 | 100 | –
COc1c(C(=O)N[C@@H]2C[C@H]3CC[C@@H](C2)N3Cc2ccccc2)cc(Br)c(N)c1Br [Compound 74] | 0.035 | 250 | –
COc1cc(N)c(Br)cc1C(=O)N[C@@H]1C[C@H]2CC[C@@H](C1)N2Cc1ccc(C(F)(F)F)cc1 [Compound 33] | 0.19 | > 400 | –
COc1cc(N)c(Br)cc1C(=O)N[C@@H]1C[C@H]2CC[C@@H](C1)N2Cc1cccc(C(F)(F)F)c1 [Compound 21] | 0.07 | 85 | –
COc1cc(N)c(Br)cc1C(=O)N[C@@H]1C[C@H]2CC[C@@H](C1)N2Cc1cccc(F)c1 [Compound 26] | 0.011 | 140 | –
CCOc1cc(N)c(Br)cc1C(=O)N[C@@H]1C[C@H]2CC[C@@H](C1)N2Cc1ccccc1 [Compound 75] | 0.021 | > 400 | –
COc1ccc(C(=O)N[C@@H]2C[C@H]3CC[C@@H](C2)N3Cc2ccccc2)c(OC)c1 [Compound 68] | 0.02 | 47 | –
COc1cc(N)ccc1C(=O)N[C@@H]1C[C@H]2CC[C@@H](C1)N2Cc1ccccc1 [Compound 67] | 0.038 | 100 | –
COc1cc(NC(C)=O)c(Br)cc1C(=O)N[C@@H]1C[C@H]2CC[C@@H](C1)N2Cc1ccccc1 [Compound 40] | 0.05 | 130 | –
COc1cc(N)c(Br)cc1C(=O)N[C@@H]1C[C@H]2CC[C@@H](C1)N2Cc1ccc(C)cc1 [Compound 23] | 0.07 | > 400 | –
COc1ccc(O)cc1C(=O)N[C@@H]1C[C@H]2CC[C@@H](C1)N2Cc1ccccc1 [Compound 51] | 0.03 | 140 | –
COc1cc(N)c(Br)cc1C(=O)N[C@@H]1C[C@H]2CC[C@@H](C1)N2Cc1ccsc1 [Compound 32] | 0.05 | 140 | –
CCOc1nc(N)ncc1C(=O)N[C@@H]1C[C@H]2CC[C@@H](C1)N2Cc1ccccc1 [Compound 3] | 0.04 | 300 | –
COc1cc(N)c(Br)cc1C(=O)N[C@@H]1C[C@H]2CC[C@@H](C1)N2Cc1ccc(F)cc1 [Compound 19, β-3-[(4-amino 5-bromo 2-methoxy)benzoyl]amino N-parafluorobenzyl nor-tropane, chlorhydrate] | 0.01 | 90 | –

From patent US4424358A, “β-3-Amino nor-tropane compounds” (Delalande S.A., priority 1979, dated 1984)
